Data: patent publication US7320972B2, “4-Biarylyl-1-phenylazetidin-2-ones” (Microbia, Inc., priority 2003, dated 2008)

Tested on: cholesterol absorption (serum 3H-cholesterol)
Assay: In Vivo Assay of Hypolipidemic Agents using the Rat Cholesterol Absorption Model
Design: species or system Sprague-Dawley rats
Details: po, peroral, 1 mg/kg, serum 3H-cholesterol 3 h after cholesterol dose, vs vehicle control
Procedure: In Vivo Assay of Hypolipidemic Agents using the Rat Cholesterol Absorption Model. This model is based on models described by Burnett et al (2002), Bioorg. Med. Chem. Lett. 2002 Feb. 11;12(3):315-8 and J. Lipid Res. 1999 October;40(10):1747-57. Female Sprague-Dawley rats weighing 150-250 g are separated into groups of […] and fasted overnight. The animals (4-6/group) are dosed perorally with 300 μL test compounds in olive oil or suitable vehicle. Thirty minutes later, 3-5 microCuries ^3H-cholesterol per rat are delivered perorally in 300 μL olive oil. After three hours, 200 μL serum is collected, vortexed with scintillation fluid, and measured for radioactivity in a scintillation counter. Percent inhibition is defined as 100*(1−Ctest/Cctrl), where Ctest and Cctl refer to ^3H levels in serum for the test compound and for the vehicle only control, respectively. Percent inhibition values are reported for a fixed dose. The ED50 is the dose at which the half-maximal effect on serum ^3H levels is observed for a given test compound.
Representative compounds of the invention were tested in the Rat Cholesterol Absorption model above.

Row | SMILES | inhibition in vivo at 1 mg/kg
1 | O=C(O)Cc1ccc(-c2ccc([C@@H]3[C@@H](CC[C@H](O)c4ccc(F)cc4)C(=O)N3c3ccc(F)cc3)cc2)cc1 [Example 88, (4′-{(2S,3R)-1-(4-fluorophenyl)-3-[(3S)-3-(4-fluorophenyl)-3-hydroxypropyl]-4-oxoazetidin-2-yl}biphenyl-4-yl)acetic Acid] | 30%
2 | COC(=O)c1ccc(-c2ccc([C@@H]3[C@@H](CC[C@H](O)c4ccc(F)cc4)C(=O)N3c3ccc(F)cc3)cc2)cc1 [Example 89, methyl 4′-{(2S,3R)-1-(4-fluorophenyl)-3-[(3S)-3-(4-fluorophenyl)-3-hydroxypropyl]-4-oxoazetidin-2-yl}biphenyl-4-carboxylate] | 45%
3 | Cc1cc(C)cc(-c2ccc([C@@H]3[C@@H](CC[C@H](O)c4ccc(F)cc4)C(=O)N3c3ccc(F)cc3)cc2)c1 [Example 90, (3R,4S)-4-(3′,5′-dimethylbiphenyl-4-yl)-1-(4-fluorophenyl)-3-[(3S)-3-(4-fluorophenyl)-3-hydroxypropyl]azetidin-2-one] | 27%
4 | O=C1[C@H](CC[C@H](O)c2ccc(F)cc2)[C@@H](c2ccc(-c3ccc4ccccc4c3)cc2)N1c1ccc(F)cc1 [Example 91, (3R,4S)-1-(4-fluorophenyl)-3-[(3S)-3-(4-fluorophenyl)-3-hydroxypropyl]-4-[4-(2-naphthyl)phenyl]azetidin-2-one] | 56%
5 | O=C1[C@H](CC[C@H](O)c2ccc(F)cc2)[C@@H](c2ccc(-c3cccc(C(F)(F)F)c3)cc2)N1c1ccc(F)cc1 [Example 92, (3R,4S)-1-(4-fluorophenyl)-3-[(3S)-3-(4-fluorophenyl)-3-hydroxypropyl]-4-[3′-(trifluoromethyl)biphenyl-4-yl]azetidin-2-one] | 17%
6 | Cc1cccc(-c2ccc([C@@H]3[C@@H](CC[C@H](O)c4ccc(F)cc4)C(=O)N3c3ccc(F)cc3)cc2)c1 [Example 93, (3R,4S)-1-(4-fluorophenyl)-3-[(3S)-3-(4-fluorophenyl)-3-hydroxypropyl]-4-(3′-methylbiphenyl-4-yl)azetidin-2-one] | 28%
7 | Cc1cc(-c2ccc([C@@H]3[C@@H](CC[C@H](O)c4ccc(F)cc4)C(=O)N3c3ccc(F)cc3)cc2)ccc1F [Example 94, (3R,4S)-4-(4′-fluoro-3′-methylbiphenyl-4-yl)-1-(4-fluorophenyl)-3-[(3S)-3-(4-fluorophenyl)-3-hydroxypropyl]azetidin-2-one] | 30%
8 | O=C1[C@H](CC[C@H](O)c2ccc(F)cc2)[C@@H](c2ccc(-c3cccc(O[C@H]4O[C@@H](CO)[C@H](O)[C@@H](O)[C@@H]4O)c3)cc2)N1c1ccc(F)cc1 [Example 95, 4′-{(2S,3R)-1-(4-fluorophenyl)-3-[(3S)-3-(4-fluorophenyl)-3-hydroxypropyl]-4-oxoazetidin-2-yl}biphenyl-3-yl β-L-glucopyranoside] | 57%
9 | COc1ccc(-c2ccc([C@@H]3[C@@H](CC[C@H](O)c4ccc(F)cc4)C(=O)N3c3ccc(F)cc3)cc2)c(OC)c1OC [Example 96, (3R,4S)-1-(4-fluorophenyl)-3-[(3S)-3-(4-fluorophenyl)-3-hydroxypropyl]-4-(2′,3′,4′-trimethoxybiphenyl-4-yl)azetidin-2-one] | 69%
10 | COc1ccc(-c2ccc([C@@H]3[C@@H](CC[C@H](O)c4ccc(F)cc4)C(=O)N3c3ccc(F)cc3)cc2)c(OC)c1 [Example 97, (3R,4S)-4-(2′,4′-dimethoxybiphenyl-4-yl)-1-(4-fluorophenyl)-3-[(3S)-3-(4-fluorophenyl)-3-hydroxypropyl]azetidin-2-one] | 40%
11 | Cc1ccccc1-c1ccc([C@@H]2[C@@H](CC[C@H](O)c3ccc(F)cc3)C(=O)N2c2ccc(F)cc2)cc1 [Example 98, (3R,4S)-1-(4-fluorophenyl)-3-[(3S)-3-(4-fluorophenyl)-3-hydroxypropyl]-4-(2′-methylbiphenyl-4-yl)azetidin-2-one] | 7%
12 | O=Cc1ccc(-c2ccc([C@@H]3[C@@H](CC[C@H](O)c4ccc(F)cc4)C(=O)N3c3ccc(F)cc3)cc2)cc1 [Example 99, 4′-{(2S,3R)-1-(4-fluorophenyl)-3-[(3S)-3-(4-fluorophenyl)-3-hydroxypropyl]-4-oxoazetidin-2-yl}biphenyl-4-carbaldehyde] | 38%
13 | CCOc1cccc(-c2ccc([C@@H]3[C@@H](CC[C@H](O)c4ccc(F)cc4)C(=O)N3c3ccc(F)cc3)cc2)c1 [Example 100, (3R,4S)-4-(3′-ethoxybiphenyl-4-yl)-1-(4-fluorophenyl)-3-[(3S)-3-(4-fluorophenyl)-3-hydroxypropyl]azetidin-2-one] | 54%
14 | CCOc1ccc(-c2ccc([C@@H]3[C@@H](CC[C@H](O)c4ccc(F)cc4)C(=O)N3c3ccc(F)cc3)cc2)cc1 [Example 101, (3R,4S)-4-(4′-ethoxybiphenyl-4-yl)-1-(4-fluorophenyl)-3-[(3S)-3-(4-fluorophenyl)-3-hydroxypropyl]azetidin-2-one] | 41%
15 | COc1cc(-c2ccc([C@@H]3[C@@H](CC[C@H](O)c4ccc(F)cc4)C(=O)N3c3ccc(F)cc3)cc2)ccc1O [Example 102, (3R,4S)-1-(4-fluorophenyl)-3-[(3S)-3-(4-fluorophenyl)-3-hydroxypropyl]-4-(4′-hydroxy-3′-methoxybiphenyl-4-yl)azetidin-2-one] | 56%
16 | CCCOc1cccc(-c2ccc([C@@H]3[C@@H](CC[C@H](O)c4ccc(F)cc4)C(=O)N3c3ccc(F)cc3)cc2)c1 [Example 103, (3R,4S)-1-(4-fluorophenyl)-3-[(3S)-3-(4-fluorophenyl)-3-hydroxypropyl]-4-(3′-propoxybiphenyl-4-yl)azetidin-2-one] | 21%
17 | O=Cc1ccc(O)cc1-c1ccc([C@@H]2[C@@H](CC[C@H](O)c3ccc(F)cc3)C(=O)N2c2ccc(F)cc2)cc1 [Example 104, 4′-{(2S,3R)-1-(4-fluorophenyl)-3-[(3S)-3-(4-fluorophenyl)-3-hydroxypropyl]-4-oxoazetidin-2-yl}-5-hydroxybiphenyl-2-carbaldehyde] | 52%
18 | CC(C)Oc1cccc(-c2ccc([C@@H]3[C@@H](CC[C@H](O)c4ccc(F)cc4)C(=O)N3c3ccc(F)cc3)cc2)c1 [Example 105, (3R,4S)-1-(4-fluorophenyl)-3-[(3S)-3-(4-fluorophenyl)-3-hydroxypropyl]-4-(3′-isopropoxybiphenyl-4-yl)azetidin-2-one] | 15%
19 | O=C(O)c1cc(-c2ccc([C@@H]3[C@@H](CC[C@H](O)c4ccc(F)cc4)C(=O)N3c3ccc(F)cc3)cc2)ccc1O [Example 106, 4′-{(2S,3R)-1-(4-fluorophenyl)-3-[(3S)-3-(4-fluorophenyl)-3-hydroxypropyl]-4-oxoazetidin-2-yl}-4-hydroxybiphenyl-3-carboxylic Acid] | 66%
20 | COc1cc(OC)cc(-c2ccc([C@@H]3[C@@H](CC[C@H](O)c4ccc(F)cc4)C(=O)N3c3ccc(F)cc3)cc2)c1 [Example 107, (3R,4S)-4-(3′,5′-dimethoxybiphenyl-4-yl)-1-(4-fluorophenyl)-3-[(3S)-3-(4-fluorophenyl)-3-hydroxypropyl]azetidin-2-one] | 49%
21 | O=C1[C@H](CC[C@H](O)c2ccc(F)cc2)[C@@H](c2ccc(-c3ccc(O)cc3O)cc2)N1c1ccc(F)cc1 [Example 108, (3R,4S)-4-(2′,4′-dihydroxybiphenyl-4-yl)-1-(4-fluorophenyl)-3-[(3S)-3-(4-fluorophenyl)-3-hydroxypropyl]azetidin-2-one] | 69%
22 | CCCCOc1cccc(-c2ccc([C@@H]3[C@@H](CC[C@H](O)c4ccc(F)cc4)C(=O)N3c3ccc(F)cc3)cc2)c1 [Example 109, (3R,4S)-4-(3′-butoxybiphenyl-4-yl)-1-(4-fluorophenyl)-3-[(3S)-3-(4-fluorophenyl)-3-hydroxypropyl]azetidin-2-one] | 52%
23 | O=C(O)c1ccc(-c2ccc([C@@H]3[C@@H](CC[C@H](O)c4ccc(F)cc4)C(=O)N3c3ccc(F)cc3)cc2)cc1O [Example 110, 4′-{(2S,3R)-1-(4-fluorophenyl)-3-[(3S)-3-(4-fluorophenyl)-3-hydroxypropyl]-4-oxoazetidin-2-yl}-3-hydroxybiphenyl-4-carboxylic Acid] | 72%
24 | COc1cc(F)cc(-c2ccc([C@@H]3[C@@H](CC[C@H](O)c4ccc(F)cc4)C(=O)N3c3ccc(F)cc3)cc2)c1 [Example 111, (3R,4S)-4-(3′-fluoro-5′-methoxybiphenyl-4-yl)-1-(4-fluorophenyl)-3-[(3S)-3-(4-fluorophenyl)-3-hydroxypropyl]azetidin-2-one] | 72%
25 | O=C1[C@H](CC[C@H](O)c2ccc(F)cc2)[C@@H](c2ccc(-c3cc(O)cc(F)c3)cc2)N1c1ccc(F)cc1 [Example 112, (3R,4S)-4-(3′-fluoro-5′-hydroxybiphenyl-4-yl)-1-(4-fluorophenyl)-3-[(3S)-3-(4-fluorophenyl)-3-hydroxypropyl]azetidin-2-one] | 75%
26 | O=C1[C@H](CC[C@H](O)c2ccc(F)cc2)[C@@H](c2ccc(-c3cccc([C@@H]4O[C@@H](CO)[C@H](O)[C@@H](O)[C@@H]4O)c3)cc2)N1c1ccc(F)cc1 [Example 113, (1S)-1,5-anhydro-1-(4′-{(2S,3R)-1-(4-fluorophenyl)-3-[(3S)-3-(4-fluorophenyl)-3-hydroxypropyl]-4-oxoazetidin-2-yl}biphenyl-3-yl)-L-glucitol] | 67%
